Test results reported in ChEMBL document CHEMBL1201862, “PubChem BioAssay data set” (2004).
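Tested at 5 concentrations; 48 h exposure; 96-well plates; endpoints linearly interpolated, else capped at highest concentration. Here, GI50 denotes the concentration required for 50% inhibition of growth.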 The source made the active and inactive calls. Cut-off read from the data, not from the text of the source: active = GI50 up to about 1.1 µM and inactive = higher.

Key:
Test in all cases: NCI-60 cell line screen, 48 h
HCC 2998 = system: HCC 2998
ACHN = system: ACHN
HCT-15 = system: HCT-15
CCRF-CEM = system: CCRF-CEM
SF-295 = system: SF-295
SNB-75 = system: SNB-75
OVCAR-4 = system: OVCAR-4
K562 = system: K562
TK-10 = system: TK-10
SW-620 = system: SW-620
M14 = system: M14
KM12 = system: KM12
OVCAR-8 = system: OVCAR-8
Malme-3M = system: Malme-3M
SR = system: SR
UACC-62 = system: UACC-62
HOP-62 = system: HOP-62
SK-MEL-2 = system: SK-MEL-2
SK-MEL-5 = system: SK-MEL-5
NCI-H460 = system: NCI-H460

| Compound | GI50 (HCC 2998) | GI50 (ACHN) | GI50 (HCT-15) | GI50 (CCRF-CEM) | GI50 (SF-295) | GI50 (SNB-75) | GI50 (OVCAR-4) | GI50 (K562) | GI50 (TK-10) | GI50 (SW-620) | GI50 (M14) | GI50 (KM12) | GI50 (OVCAR-8) | GI50 (Malme-3M) | GI50 (SR) | GI50 (UACC-62) | GI50 (HOP-62) | GI50 (SK-MEL-2) | GI50 (SK-MEL-5) | GI50 (NCI-H460) |
| --- | --- | --- | --- | --- | --- | --- | --- | --- | --- | --- | --- | --- | --- | --- | --- | --- | --- | --- | --- | --- |
| CCOC(=O)C(O)(NC(C)=O)C(F)(F)F (stereo not given) | > 100 µM (inactive) | > 100 µM (inactive) | > 100 µM | > 100 µM (inactive) | > 100 µM (inactive) | > 100 µM (inactive) | > 100 µM (inactive) | > 100 µM (inactive) | > 100 µM (inactive) | > 100 µM (inactive) | > 100 µM (inactive) | > 100 µM (inactive) | > 100 µM (inactive) | > 100 µM (inactive) | 7.24 µM (inactive) | > 100 µM (inactive) | > 100 µM (inactive) | > 100 µM (inactive) | > 100 µM (inactive) |  |
| Nc1ccc(-c2nc3ccccc3s2)cc1 | 59.7 µM (inactive) | 15.7 µM (inactive) | 19.5 µM | 14.6 µM (inactive) | 29.9 µM (inactive) | 23.8 µM (inactive) | 14.8 µM (inactive) | 21.9 µM (inactive) | 24.5 µM (inactive) | 20 µM (inactive) | 18.6 µM (inactive) | 21.4 µM (inactive) | 12.8 µM (inactive) | 17.6 µM (inactive) | 18.4 µM (inactive) | 18.4 µM (inactive) | 36.9 µM (inactive) | 25.3 µM (inactive) | 21.6 µM (inactive) | 20.8 µM (inactive) |
| CN(C)/C=C/c1nnnn1-c1ccc(I)cc1 | 39.6 µM (inactive) | 22 µM (inactive) | 13.5 µM | 10.6 µM (inactive) | 25.8 µM (inactive) | 11.1 µM (inactive) | 20.5 µM (inactive) | 19 µM (inactive) | 30.5 µM (inactive) | 15.3 µM (inactive) | 14.3 µM (inactive) | 18.5 µM (inactive) | 19.5 µM (inactive) | 21 µM (inactive) | 16.4 µM (inactive) | 12.4 µM (inactive) | 31.8 µM (inactive) |  | 16.6 µM (inactive) | 31.1 µM (inactive) |
| O=C(Nc1cccc(O)c1)C(=O)C1C(=O)NC(=S)NC1=O | > 100 µM (inactive) | > 100 µM (inactive) | > 100 µM | > 100 µM (inactive) | > 100 µM (inactive) | > 100 µM (inactive) | > 100 µM (inactive) | > 100 µM (inactive) |  | > 100 µM (inactive) | > 100 µM (inactive) |  | > 100 µM (inactive) | > 100 µM (inactive) | > 100 µM (inactive) | > 100 µM (inactive) |  |  | > 100 µM (inactive) |  |
| NS(=O)(=O)c1ccc(NC(=O)C2C(=O)C(=O)N(c3ccc(S(N)(=O)=O)cc3)C2=O)cc1 (stereo not given) | > 100 µM (inactive) | > 100 µM (inactive) | > 100 µM | > 100 µM (inactive) | > 100 µM (inactive) | > 100 µM (inactive) | > 100 µM (inactive) | > 100 µM (inactive) | > 100 µM (inactive) | > 100 µM (inactive) | > 100 µM (inactive) |  | > 100 µM (inactive) | > 100 µM (inactive) | > 100 µM (inactive) | > 100 µM (inactive) | > 100 µM (inactive) | > 100 µM (inactive) | > 100 µM (inactive) |  |
| CN(C)/N=C1\CC(c2ccccc2)C(C#N)(C#N)C1(C#N)C#N (stereo not given) | 18.7 µM (inactive) | 18.9 µM (inactive) | 15.4 µM | 6.14 µM (inactive) | 23.7 µM (inactive) | 15.7 µM (inactive) | 33.2 µM (inactive) | 3.2 µM (inactive) | 17.5 µM (inactive) | 6.61 µM (inactive) | 17.4 µM (inactive) | 49.3 µM (inactive) | 21.1 µM (inactive) | 16.9 µM (inactive) | 18.5 µM (inactive) | 16 µM (inactive) | 24.4 µM (inactive) | 21 µM (inactive) | 11.6 µM (inactive) |  |
| O=C1c2ccccc2C2(O)NC(=S)N(c3ccccc3)C12O (stereo not given) | > 100 µM (inactive) |  | > 100 µM | > 100 µM (inactive) | > 100 µM (inactive) | > 100 µM (inactive) | > 100 µM (inactive) | > 100 µM (inactive) | > 100 µM (inactive) | > 100 µM (inactive) | > 100 µM (inactive) | > 100 µM (inactive) | > 100 µM (inactive) | > 100 µM (inactive) | > 100 µM (inactive) | > 100 µM (inactive) |  | > 100 µM (inactive) |  | > 100 µM (inactive) |
| Cc1nc(O)nc2c1C(NCCCN(C)C)c1cc(Cl)ccc1N2 (stereo not given) | 16.3 µM (inactive) | 16.6 µM (inactive) |  | 15.1 µM (inactive) | 16.6 µM (inactive) | 12.8 µM (inactive) |  | 8.61 µM (inactive) | 16.8 µM (inactive) | 15.2 µM (inactive) | 9.59 µM (inactive) | 16 µM (inactive) | 15.3 µM (inactive) | 16.7 µM (inactive) | 4.81 µM (inactive) | 13.4 µM (inactive) | 14.6 µM (inactive) | 17.4 µM (inactive) |  | 14.7 µM (inactive) |
| CC(CC(C)[C@H]1CCC2[C@H]3C(CC[C@@]21C)[C@@]1(C)CCC(O)C[C@H]1C[C@@H]3O)C(=O)O (stereo not given in full) | > 100 µM (inactive) | > 100 µM (inactive) | > 100 µM | > 100 µM (inactive) |  | > 100 µM (inactive) | > 100 µM (inactive) | 26.2 µM (inactive) | > 100 µM (inactive) | > 100 µM (inactive) | > 100 µM (inactive) | > 100 µM (inactive) | > 100 µM (inactive) | > 100 µM (inactive) | > 100 µM (inactive) | > 100 µM (inactive) | > 100 µM (inactive) | > 100 µM (inactive) |  | > 100 µM (inactive) |
| CC(=O)Nc1ccc(/C=C(\NC(=O)c2ccccc2)C(=O)NNS(=O)(=O)c2ccc(C)cc2)cc1 | > 100 µM (inactive) | > 100 µM (inactive) | 18.4 µM | > 100 µM (inactive) | > 100 µM (inactive) | > 100 µM (inactive) | > 100 µM (inactive) | > 100 µM (inactive) | > 100 µM (inactive) |  | > 100 µM (inactive) | > 100 µM (inactive) | > 100 µM (inactive) | > 100 µM (inactive) | 20.1 µM (inactive) | > 100 µM (inactive) | > 100 µM (inactive) | > 100 µM (inactive) | > 100 µM (inactive) | 50.2 µM (inactive) |
| CCCCCCCCC/C=C1\CC(CO)(COC(=O)c2ccccc2)OC1=O (stereo not given) | 22.8 µM (inactive) | 29.8 µM (inactive) | 20.7 µM | 16.9 µM (inactive) | 21.2 µM (inactive) | 15.9 µM (inactive) | 35.1 µM (inactive) | 27.9 µM (inactive) | 18.6 µM (inactive) | 19.1 µM (inactive) | 17.8 µM (inactive) | 21.4 µM (inactive) |  | 14.5 µM (inactive) | 42.4 µM (inactive) | 25.4 µM (inactive) | 14.8 µM (inactive) | 43.5 µM (inactive) | 12.5 µM (inactive) | 16 µM (inactive) |
| Oc1cc(-c2ccc(Oc3ccccc3)cc2)nc2cc3c(cc12)OCO3 | > 100 µM (inactive) | > 100 µM (inactive) | > 100 µM | > 100 µM (inactive) | > 100 µM (inactive) | 27.2 µM (inactive) | > 100 µM (inactive) | > 100 µM (inactive) | > 100 µM (inactive) | > 100 µM (inactive) | > 100 µM (inactive) |  | > 100 µM (inactive) | > 100 µM (inactive) | > 100 µM (inactive) | > 100 µM (inactive) | > 100 µM (inactive) | > 100 µM (inactive) | > 100 µM (inactive) | > 100 µM (inactive) |
| CCOC(=O)/C(=C/c1ccco1)P(=O)(OCC)OCC | > 100 µM (inactive) | > 100 µM (inactive) | > 100 µM | > 100 µM (inactive) | > 100 µM (inactive) | > 100 µM (inactive) | > 100 µM (inactive) | > 100 µM (inactive) | > 100 µM (inactive) | > 100 µM (inactive) | > 100 µM (inactive) | > 100 µM (inactive) | > 100 µM (inactive) | > 100 µM (inactive) | > 100 µM (inactive) | > 100 µM (inactive) |  | > 100 µM (inactive) | > 100 µM (inactive) | > 100 µM (inactive) |
| CS/C1=C(\c2ccc(C)cc2)N(c2ccccc2)C(=O)C(=O)N(c2ccccc2)/C(c2ccc(C)cc2)=C(/SC)SS1 | > 100 µM (inactive) | > 100 µM (inactive) | > 100 µM | > 100 µM (inactive) | > 100 µM (inactive) | > 100 µM (inactive) | > 100 µM (inactive) | > 100 µM (inactive) | > 100 µM (inactive) | > 100 µM (inactive) | 82.8 µM (inactive) |  | > 100 µM (inactive) | > 100 µM (inactive) | > 100 µM (inactive) | > 100 µM (inactive) | > 100 µM (inactive) | > 100 µM (inactive) |  | > 100 µM (inactive) |
| CC1=C(C#N)c2nc3ccccc3n2C(=O)C1(C)CCO (stereo not given) | > 100 µM (inactive) | > 100 µM (inactive) | > 100 µM | > 100 µM (inactive) | > 100 µM (inactive) | > 100 µM (inactive) | > 100 µM (inactive) | > 100 µM (inactive) | > 100 µM (inactive) | > 100 µM (inactive) | > 100 µM (inactive) |  | > 100 µM (inactive) | > 100 µM (inactive) | 24.3 µM (inactive) | > 100 µM (inactive) | > 100 µM (inactive) | > 100 µM (inactive) | > 100 µM (inactive) | > 100 µM (inactive) |
